Test [1] has as its target Tyrosine-protein kinase JAK2 (Homo sapiens, UniProt O60674). The experiment in a line: Inhibition of human JAK2 using poly[Glu:Tyr] (4:1) as substrate in presence of [gamma-33P]ATP.
A further test concerns the target Histone deacetylase 1 (Homo sapiens, UniProt Q13547). Nature of the test: Inhibition of human HDAC1 using p53 (379 to 382 residues) derived fluorogenic peptide RHKKAc as substrate.
Test [2] has as its target T1, Protein deacetylase HDAC6 (Homo sapiens, UniProt Q9UBN7).
T1 sequence (Q9UBN7 whole entry): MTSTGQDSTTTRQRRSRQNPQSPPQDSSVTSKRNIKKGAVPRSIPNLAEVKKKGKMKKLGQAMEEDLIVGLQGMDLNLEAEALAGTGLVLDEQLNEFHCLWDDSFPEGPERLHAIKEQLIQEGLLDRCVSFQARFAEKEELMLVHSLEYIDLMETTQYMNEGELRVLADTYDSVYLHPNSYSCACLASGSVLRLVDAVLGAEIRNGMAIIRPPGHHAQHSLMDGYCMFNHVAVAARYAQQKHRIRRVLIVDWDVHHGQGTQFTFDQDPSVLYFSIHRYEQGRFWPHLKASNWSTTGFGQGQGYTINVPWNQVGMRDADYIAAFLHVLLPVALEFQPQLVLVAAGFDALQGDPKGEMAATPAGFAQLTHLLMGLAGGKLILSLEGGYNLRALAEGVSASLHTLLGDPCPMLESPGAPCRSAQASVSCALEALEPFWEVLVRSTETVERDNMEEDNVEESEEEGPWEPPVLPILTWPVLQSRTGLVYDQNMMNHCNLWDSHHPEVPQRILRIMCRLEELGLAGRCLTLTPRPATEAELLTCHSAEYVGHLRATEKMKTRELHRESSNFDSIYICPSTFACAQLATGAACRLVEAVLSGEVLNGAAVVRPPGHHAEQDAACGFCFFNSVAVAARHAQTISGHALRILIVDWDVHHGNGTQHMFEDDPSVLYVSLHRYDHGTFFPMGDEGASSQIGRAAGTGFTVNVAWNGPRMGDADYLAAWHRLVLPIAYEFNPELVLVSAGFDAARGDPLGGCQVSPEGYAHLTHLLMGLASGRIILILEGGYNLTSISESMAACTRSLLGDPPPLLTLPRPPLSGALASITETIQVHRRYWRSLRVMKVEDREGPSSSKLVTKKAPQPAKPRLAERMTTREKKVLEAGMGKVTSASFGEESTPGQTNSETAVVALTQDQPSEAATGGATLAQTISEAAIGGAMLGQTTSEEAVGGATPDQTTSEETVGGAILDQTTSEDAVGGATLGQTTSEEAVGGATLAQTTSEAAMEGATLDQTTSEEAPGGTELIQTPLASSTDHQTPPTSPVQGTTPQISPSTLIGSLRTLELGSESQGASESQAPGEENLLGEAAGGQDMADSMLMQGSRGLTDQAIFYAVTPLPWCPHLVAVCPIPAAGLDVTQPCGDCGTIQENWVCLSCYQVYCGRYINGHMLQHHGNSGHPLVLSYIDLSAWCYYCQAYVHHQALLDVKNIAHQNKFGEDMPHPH
Nature of the test: Inhibition of human HDAC6 using p53 (379 to 382 residues) derived fluorogenic peptide RHKKAc as substrate.

A further test relates to HCT-116. Nature of the test: Antiproliferative activity against human HCT116 cells. The class given is functional, cell-based.
The next test deals with MCF7. The experiment in a line: Antiproliferative activity against human MCF7 cells. It is filed as functional, cell-based.
A further test deals with PC-3. Nature of the test: Antiproliferative activity against human PC3 cells. It is filed as functional, cell-based.
In a further test the test system is MDA-MB-231. The experiment in a line: Antiproliferative activity against human MDA-MB-231 cells. It is filed as functional, cell-based.
The species entered for the next test is Homo sapiens. The experiment in a line: Selectivity ratio of IC50 for human HDAC6 to IC50 for human HDAC1.

Bounds are passed on as bounds.

Sequence of Histone deacetylase 1 (Q13547 whole entry, the tested form may be a part): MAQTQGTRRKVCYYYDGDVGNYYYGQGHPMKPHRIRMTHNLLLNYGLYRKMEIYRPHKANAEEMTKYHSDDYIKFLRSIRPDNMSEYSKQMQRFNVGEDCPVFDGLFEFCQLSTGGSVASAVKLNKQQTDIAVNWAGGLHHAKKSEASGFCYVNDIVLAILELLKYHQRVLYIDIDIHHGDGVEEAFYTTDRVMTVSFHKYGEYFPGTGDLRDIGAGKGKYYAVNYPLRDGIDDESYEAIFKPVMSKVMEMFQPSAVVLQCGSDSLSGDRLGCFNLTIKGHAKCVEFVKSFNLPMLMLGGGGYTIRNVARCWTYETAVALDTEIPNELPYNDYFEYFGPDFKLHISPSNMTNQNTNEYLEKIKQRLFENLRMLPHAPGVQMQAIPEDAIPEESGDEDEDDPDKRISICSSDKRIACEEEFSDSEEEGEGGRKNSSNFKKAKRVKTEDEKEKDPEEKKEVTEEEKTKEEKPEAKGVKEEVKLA
Sequence of Tyrosine-protein kinase JAK2 (O60674 whole entry, the tested form may be a part): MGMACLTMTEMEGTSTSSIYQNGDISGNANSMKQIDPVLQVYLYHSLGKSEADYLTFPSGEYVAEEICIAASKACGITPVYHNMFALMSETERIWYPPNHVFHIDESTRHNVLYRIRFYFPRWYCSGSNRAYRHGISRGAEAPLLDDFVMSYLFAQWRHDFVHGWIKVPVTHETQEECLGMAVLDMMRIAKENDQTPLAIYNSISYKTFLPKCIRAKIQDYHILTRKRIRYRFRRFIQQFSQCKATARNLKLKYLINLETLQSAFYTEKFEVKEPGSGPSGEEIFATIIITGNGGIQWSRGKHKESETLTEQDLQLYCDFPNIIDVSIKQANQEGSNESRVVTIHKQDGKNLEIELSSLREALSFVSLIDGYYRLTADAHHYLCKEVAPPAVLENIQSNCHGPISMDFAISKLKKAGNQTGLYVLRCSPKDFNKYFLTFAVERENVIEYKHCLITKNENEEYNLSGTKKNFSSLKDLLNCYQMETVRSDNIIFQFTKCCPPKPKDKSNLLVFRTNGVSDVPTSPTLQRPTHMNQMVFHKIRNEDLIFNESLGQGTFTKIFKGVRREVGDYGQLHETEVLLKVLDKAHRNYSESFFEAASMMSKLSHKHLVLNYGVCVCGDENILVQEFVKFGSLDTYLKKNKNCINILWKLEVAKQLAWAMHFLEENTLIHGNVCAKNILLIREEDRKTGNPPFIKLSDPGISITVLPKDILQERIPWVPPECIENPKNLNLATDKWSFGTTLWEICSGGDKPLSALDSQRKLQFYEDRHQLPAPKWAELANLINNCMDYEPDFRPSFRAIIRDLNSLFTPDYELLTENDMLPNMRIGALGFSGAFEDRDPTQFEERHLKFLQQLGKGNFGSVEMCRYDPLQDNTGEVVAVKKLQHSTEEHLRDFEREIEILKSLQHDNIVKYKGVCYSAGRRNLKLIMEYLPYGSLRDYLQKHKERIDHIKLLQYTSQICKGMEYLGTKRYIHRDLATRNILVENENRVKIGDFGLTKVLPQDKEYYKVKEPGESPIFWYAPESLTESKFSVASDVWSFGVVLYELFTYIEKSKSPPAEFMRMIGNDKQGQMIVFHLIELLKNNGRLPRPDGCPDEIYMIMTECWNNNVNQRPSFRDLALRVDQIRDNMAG

In the case of `O=C(CCCCCCC(=O)Nc1ccc(Nc2nc(-c3cnn(CCCCOc4ccccc4)c3)c3cc[nH]c3n2)cc1)NO`, the figures for the IC50 (in test [1]; on Histone deacetylase 1; in test [2]) were 40 nM, 1720 nM and 7 nM, respectively.

Take `N#CC[C@H](C1CCCC1)n1cc(-c2ncnc3[nH]ccc23)cn1` [RUXOLITINIB]: the IC50 (in general, the concentration needed to halve the response being measured) in the test on HCT-116 is over 10000 nM.

Turning to `COCCn1cc(-c2nc(Nc3ccc(NC(=O)CCCCCCC(=O)NO)cc3)nc3[nH]ccc23)cn1`, the IC50 in test [1] came to 2.3 nM; with MCF7, 12200 nM; with HCT-116 it was 9400 nM; in the test on PC-3, 35000 nM; against Histone deacetylase 1 it was 63 nM; in the test with MDA-MB-231 it was 13300 nM. In test [2], this molecule showed an IC50 of 2.1 nM.

For the molecule `O=C(CCCCCCC(=O)Nc1ccc(Nc2nc(-c3cnn(CCCCCCOc4ccccc4)c3)c3cc[nH]c3n2)cc1)NO`, the IC50 in test [1] stood at 19 nM; at Histone deacetylase 1, 2000 nM; in test [2], 15.8 nM.

Regarding `O=C(CCCCCCC(=O)Nc1ccc(Nc2nc(-c3cnn(CCCCCOc4ccccc4)c3)c3cc[nH]c3n2)cc1)NO`, the IC50 is 21 nM in test [1], 1320 nM against Histone deacetylase 1 and 5.2 nM in test [2].

On to `CS(=O)(=O)CCn1cc(-c2nc(Nc3ccc(NC(=O)CCCCCCC(=O)NO)cc3)nc3[nH]ccc23)cn1`, for which the IC50 in test [1] is 7.7 nM; in the test with MCF7 it was over 100000 nM; in the test on HCT-116, over 100000 nM; with PC-3, over 100000 nM; at Histone deacetylase 1 it was 101 nM; in the test on MDA-MB-231, over 100000 nM. Also, the IC50 in test [2] is 2.3 nM.

As for `O=C(CCCCCCC(=O)Nc1ccc(Nc2nc(-c3cn[nH]c3)c3cc[nH]c3n2)cc1)NO`, the IC50 in test [1] stood at 0.96 nM; with MCF7, 15600 nM; in the test with HCT-116, 14400 nM; with PC-3, 20100 nM; against Histone deacetylase 1, 2 nM; with MDA-MB-231, 11800 nM. In test [2], this molecule yielded an IC50 of 0.2 nM.

On to `N#CCCn1cc(-c2nc(Nc3ccc(NC(=O)CCCCCCC(=O)NO)cc3)nc3[nH]ccc23)cn1`, for which the half-maximal inhibitory concentration (IC50) at Histone deacetylase 1 was found to be 45 nM; in test [2] it was 0.85 nM.

With `O=C(CCCCCCC(=O)Nc1ccc(Nc2nc(-c3cnn(CC4CCCC4)c3)c3cc[nH]c3n2)cc1)NO`, the IC50 in test [1] turned out to be 3 nM; at Histone deacetylase 1, 2710 nM; in test [2], 9.6 nM. Besides, the Ratio IC50 in the test listed under Homo sapiens was 300.

On to `CCCn1cc(-c2nc(Nc3ccc(NC(=O)CCCCCCC(=O)NO)cc3)nc3[nH]ccc23)cn1`, for which the IC50 in test [1] was determined as 0.15 nM; with MCF7, 8200 nM; with HCT-116, 6500 nM; with PC-3, 13400 nM; at Histone deacetylase 1, 44 nM; with MDA-MB-231 it was 9100 nM. For the same molecule, in test [2], the midpoint of inhibition, the IC50, lay at 1.6 nM.

In the case of `C=CCCn1cc(-c2nc(Nc3ccc(NC(=O)CCCCCCC(=O)NO)cc3)nc3[nH]ccc23)cn1`, the IC50 in test [1] worked out at 0.041 nM; in the test with MCF7, 4500 nM; in the test on HCT-116, 4100 nM; in the test on PC-3, 7700 nM; at Histone deacetylase 1, 83 nM; in the test on MDA-MB-231, 7400 nM. Also, the IC50 in test [2] worked out at 0.25 nM. In addition, in the test listed under Homo sapiens, the Ratio IC50 was over 300.

For `O=C(CCCCCCOc1ccc2cc1COC/C=C/COCc1cccc(c1)-c1ccnc(n1)N2)NO`, the IC50 in the test with MCF7, in the test on HCT-116, in the test with PC-3 and with MDA-MB-231 was over 10000 nM in each case.
